Experimental data: patent US11802110B2, “2-amino-N-(arylsulfinyl)-acetamide compounds as inhibitors of bacterial aminoacyl-tRNA synthetase” (priority 2016, dated 2023)
Values after ≈ are worked out from the molar mass of the structure shown.

How the values were obtained:
[1] = Human cell viability (cytotoxicity), ATP levels by CellTiter-Glo; assay type: cell-based; conditions: HepG2 cells (ATCC HB-8065), 24 hours incubation, read-out: IC50 (μg/mL), Cytotoxicity in HepG2 ATCC HB-8065 Cell Line
Experimental: Compounds were assessed for potential non-specific cytotoxic effects against a human hepatic cell line (HepG2 ATCC HB-8065). 96-well plates were seeded with HepG2 cells in concentration of 15,000 cells per well in 100 μL of MEM growth media completed with 1% NEAA and 1% sodium pyruvate. Border wells were filled with 100 μL of sterile PBS. Two days upon cells incubation, the compounds were added. Compound dilutions were prepared in 96-well V-bottom plate in pure DMSO. Growth media from 5 plates were aspirated and replaced with 98.7 μL of fresh growth media. 1.28 μL of compounds prepared in V-bottom plates were transferred with multichannel pipette into test plates (78.1× dilution). Final DMSO concentration was 1.28% per well. In control wells, 1.28 μL of DMSO was added in 98.7 μL of media. Compounds were tested in duplicates. Cells were incubated with compounds for 24 hours when cell viability was assessed by measuring ATP levels. ATP levels were measured by adding 50 μL of CellTiter-Glo reagent to each well and after 5 minutes of incubation luminescence was measured with SpectraMax i3. The potential effect of tested compounds on cell viability was determined by comparing the signal obtained in presence of different concentrations of the compounds with those obtained in the presence of DMSO only. The potential effects were then calculated and presented as IC50 values (μg/mL).

E. Coli LeuRS = E. Coli LeuRS (Escherichia coli (strain K12), UniProt P07813); assay: Study 2 - Isothermal titration calorimetry (ITC); assay type: binding; conditions: 25° C., pH 7.5, mean ± SD
E. Coli LeuRS, sequence (P07813 whole entry): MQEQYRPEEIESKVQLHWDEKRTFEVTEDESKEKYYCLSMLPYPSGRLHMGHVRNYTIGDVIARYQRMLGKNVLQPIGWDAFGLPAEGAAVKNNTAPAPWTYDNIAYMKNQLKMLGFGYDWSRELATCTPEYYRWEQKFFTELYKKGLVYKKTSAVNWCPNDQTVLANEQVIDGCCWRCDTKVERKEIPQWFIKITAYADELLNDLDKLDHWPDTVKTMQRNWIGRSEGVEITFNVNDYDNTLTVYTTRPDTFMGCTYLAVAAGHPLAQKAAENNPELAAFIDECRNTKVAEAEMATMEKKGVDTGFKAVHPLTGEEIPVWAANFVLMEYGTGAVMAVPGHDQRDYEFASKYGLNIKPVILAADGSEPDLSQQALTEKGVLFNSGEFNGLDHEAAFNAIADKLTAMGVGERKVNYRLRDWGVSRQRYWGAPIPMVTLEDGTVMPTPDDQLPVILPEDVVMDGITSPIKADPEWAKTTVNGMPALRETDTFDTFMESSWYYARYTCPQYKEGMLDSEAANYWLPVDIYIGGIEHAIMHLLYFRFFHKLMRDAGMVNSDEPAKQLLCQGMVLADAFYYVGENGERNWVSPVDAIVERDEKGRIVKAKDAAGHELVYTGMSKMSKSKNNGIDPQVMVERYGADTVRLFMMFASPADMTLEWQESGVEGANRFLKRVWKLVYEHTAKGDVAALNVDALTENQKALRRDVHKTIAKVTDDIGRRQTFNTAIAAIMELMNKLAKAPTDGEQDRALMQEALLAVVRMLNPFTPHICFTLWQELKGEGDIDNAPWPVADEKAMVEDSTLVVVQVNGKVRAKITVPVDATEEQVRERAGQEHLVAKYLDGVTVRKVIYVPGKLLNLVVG
Experimental: Escherichia coli BL21(DE3) cells transformed with plasmid pQE-60 containing the open-reading frame sequence of one targeted aaRS (i.e., LeuRS) were induced with 1 mM IPTG (isopropyl β-D-1-thiogalactopyranoside) for 3 hours at 37° C. Bacterial cells were harvested and lysed with 20 mM HEPES (4-(2-hydroxyethyl)-1-piperazinylethane-sulfonic acid) (pH 7.5), 300 mM NaCl, 15 mM imidazole and 1 mM DTT (1,4-dithio-D-threitol). The pathogenic aaRS was first purified by nickel affinity standard chromatography. The eluted protein was concentrated and then further purified by gel filtration using 50 mM HEPES (pH 7.5), 150 mM NaCl buffer.
ITC studies were carried out using a Microcal ITC200 instrument (GE Healthcare). Protein concentration was determined by spectrophotometry by measuring the absorbance at 280 nm using a theoretical molar extinction coefficient of 169,140 M^−1cm^−1. Ligand stock solutions were prepared in DMSO at 62.5 mM concentration. The titrations were performed at 25° C. with 7.5-100 μM E. Coli LeuRS in 50 mM HEPES, 150 mM NaCl, pH 7.5 buffer containing 1% DMSO (v/v). The protein solution in the 280 μL sample cell was titrated with the inhibitor solution (diluted to 75-3000 μM in the same buffer as the protein) using 1-2 μL injections every 120-140 seconds. All titrations were repeated at least two times. To correct for heats of dilution and mixing, the final baseline consisting of small peaks of identical size at the end of each experiment was subtracted. The experimental data were fitted to a theoretical titration curve (one site model) using MicroCal Origin 7 SR4 software.
Note that Compounds R-4.1 and S-4.1 (in Table 15, below) correspond to Compounds V-i and V-ii (in Tables 13 and 14, above), respectively.

[2] = test system: Enterobacter cloacae B1966 clinical isolate; assay: Study 4 - MIC by broth micro-dilution (CLSI); assay type: cell-based; conditions: Enterobacter cloacae
Experimental: (§1) Minimum Inhibitory Concentrations (MICs) were determined by the broth micro-dilution method performed according to Clinical Laboratory Standards Institute guidelines. For testing, 5 mg/mL DMSO solutions were prepared by dissolving solids in DMSO. Standard antibiotics were prepared according to CLSI guidelines as 5 mg/mL stock solutions. Upon DMSO stock solutions preparation, the working solutions in MH media were prepared by adding 38.4 μL of stock solution to 1461.6 μL of MH media. Out of these working solutions 100 μL were transferred to wells in the third column of 96-well assay plates. Assay plates were previously filled with 50 μL of MH media in all wells except for the wells in the third column. Upon compounds and antibiotics addition, 50 μL was transferred from the third to the fourth column, then from the fourth to the fifth and so on.
(§2) MIC value was determined by visual inspection of bacterial growth within 96-well plates. The first column in which there was no visible growth of bacteria was determined as MIC value for compound or antibiotic tested in that particular row. ATCC strains were used as reference strains for which there is a determined value of MIC values for standard antibiotics. The assay is considered valid when MIC values for standard antibiotics are within CLSI designated range for ATCC strain tested.

[3] = test system: Acinetobacter baumannii B1931 clinical isolate; assay: Study 4 - MIC by broth micro-dilution (CLSI); assay type: cell-based; conditions: Acinetobacter baumannii
Experimental: as §1, §2

[4] = test system: Haemophilus influenzae ATCC 49247; assay: Study 4 - MIC by broth micro-dilution (CLSI); assay type: cell-based; conditions: Haemophilus influenzae, ATCC49247; G = H. influenzae ATCC 49247; read-out: MIC
Experimental: as §1, §2

[5] = test system: Escherichia coli ATCC 25922; assay: Study 4 - MIC by broth micro-dilution (CLSI); assay type: cell-based; conditions: Escherichia coli, ATCC25922
Experimental: as §1, §2

[6] = test system: Pseudomonas aeruginosa ATCC 27853; assay: Study 4 - MIC by broth micro-dilution (CLSI); assay type: cell-based; conditions: Pseudomonas aeruginosa, ATCC27853
Experimental: as §1, §2

[7] = test system: Klebsiella pneumoniae ATCC 700603; assay: Study 4 - MIC by broth micro-dilution (CLSI); assay type: cell-based; conditions: Klebsiella pneumoniae, ATCC700603
Experimental: as §1, §2

Row | Compound | IC50 at 24 h [1] [µg/mL] | Kd (E. Coli LeuRS) [nM] | ΔG (E. Coli LeuRS) [kcal/mol] | ΔH (E. Coli LeuRS) [kcal/mol] | MIC [2] [µg/mL] | MIC [3] [µg/mL] | MIC [4] [µg/mL] | MIC [5] [µg/mL] | MIC [6] [µg/mL] | MIC [7] [µg/mL]
1 | CCC(C)C(N)C(=O)N[S+]([O-])c1ccccc1 (stereo not shown) [4.2] | > 32 | – | – | – | – | – | – | – | – | –
2 | CSCCC(N)C(=O)N[S+]([O-])c1ccccc1 (stereo not shown) [4.3] | > 64 | – | – | – | – | – | – | – | – | –
3 | CCCC(N)C(=O)N[S+]([O-])c1ccccc1 (stereo not shown) [4.4] | > 64 | 159 ± 29.4 | -9.28 ± 0.11 | -9.06 ± 0.28 | – | – | – | – | – | –
4 | CC(C)C(N)C(=O)N[S+]([O-])c1ccccc1 (stereo not shown) [4.5] | > 32 | – | – | – | – | – | – | – | – | –
5 | CC(C)C[C@@H](N)C(=O)N[S+]([O-])c1ccccc1 (stereo partly shown) [4.6] | > 32 | – | – | – | – | – | – | – | – | –
6 | CC(C)CC(C)(N)C(=O)N[S+]([O-])c1ccccc1 (stereo not shown) [4.7] | > 64 | 1820 ± 256 | -7.84 ± 0.09 | -1.66 ± 0.75 | – | – | – | – | – | –
7 | NC(Cc1ccccc1)C(=O)N[S+]([O-])c1ccccc1 (stereo not shown) [4.8] | > 64 | – | – | – | – | – | – | – | – | –
8 | NC(C(=O)N[S+]([O-])c1ccccc1)c1ccccc1 (stereo not shown) [4.9] | > 64 | – | – | – | – | – | – | – | – | –
9 | CCC(N)C(=O)N[S+]([O-])c1cccc(F)c1 (stereo not shown) [4.10] | > 64 | – | – | – | – | – | – | – | – | –
10 | CC(C)CC(N)C(=O)N[S+]([O-])c1cccc(F)c1 (stereo not shown) [4.11] | > 64 | 2.17 ± 0.08 | -11.82 ± 0.04 | -16.22 ± 0.60 | 4 (≈ 14.7 µM) | 8 (≈ 29.4 µM) | 4 (≈ 14.7 µM) | 1 (≈ 3.67 µM) | 64 (≈ 235 µM) | 2 (≈ 7.34 µM)
11 | CC(C)CC(N)C(=O)N[S+]([O-])c1cccc(Cl)c1 (stereo not shown) [4.12] | > 64 | – | – | – | 8 (≈ 27.7 µM) | 16 (≈ 55.4 µM) | 4 (≈ 13.9 µM) | 2 (≈ 6.93 µM) | 16 (≈ 55.4 µM) | 4 (≈ 13.9 µM)
12 | Cc1cccc([S+]([O-])NC(=O)C(N)CC(C)C)c1 (stereo not shown) [4.13] | > 64 | 6.62 ± 1.36 | -11.16 ± 0.12 | -8.69 ± 1.09 | 32 (≈ 119 µM) | 32 (≈ 119 µM) | 16 (≈ 59.6 µM) | 8 (≈ 29.8 µM) | > 64 | 16 (≈ 59.6 µM)
13 | COc1cccc([S+]([O-])NC(=O)C(N)CC(C)C)c1 (stereo not shown) [4.14] | > 64 | 4.02 ± 0.38 | -11.45 ± 0.06 | -12.35 ± 0.04 | 32 (≈ 113 µM) | 32 (≈ 113 µM) | 8 (≈ 28.1 µM) | 8 (≈ 28.1 µM) | 64 (≈ 225 µM) | 16 (≈ 56.3 µM)
